{"source": "patent US9187464B2", "about": "“TRPV4 antagonists” (GlaxoSmithKline Intellectual Property (No. 2) Limited, priority 2011, dated 2015)", "data": [{"target": "T1, human TRPV4 (Homo sapiens, UniProt Q9HBA0)", "T1 construct": "expressed in transfected cells; host or cells: HEK-293-MSR-II cells transduced with 1% BacMam virus", "T1 sequence (Q9HBA0 whole entry)": "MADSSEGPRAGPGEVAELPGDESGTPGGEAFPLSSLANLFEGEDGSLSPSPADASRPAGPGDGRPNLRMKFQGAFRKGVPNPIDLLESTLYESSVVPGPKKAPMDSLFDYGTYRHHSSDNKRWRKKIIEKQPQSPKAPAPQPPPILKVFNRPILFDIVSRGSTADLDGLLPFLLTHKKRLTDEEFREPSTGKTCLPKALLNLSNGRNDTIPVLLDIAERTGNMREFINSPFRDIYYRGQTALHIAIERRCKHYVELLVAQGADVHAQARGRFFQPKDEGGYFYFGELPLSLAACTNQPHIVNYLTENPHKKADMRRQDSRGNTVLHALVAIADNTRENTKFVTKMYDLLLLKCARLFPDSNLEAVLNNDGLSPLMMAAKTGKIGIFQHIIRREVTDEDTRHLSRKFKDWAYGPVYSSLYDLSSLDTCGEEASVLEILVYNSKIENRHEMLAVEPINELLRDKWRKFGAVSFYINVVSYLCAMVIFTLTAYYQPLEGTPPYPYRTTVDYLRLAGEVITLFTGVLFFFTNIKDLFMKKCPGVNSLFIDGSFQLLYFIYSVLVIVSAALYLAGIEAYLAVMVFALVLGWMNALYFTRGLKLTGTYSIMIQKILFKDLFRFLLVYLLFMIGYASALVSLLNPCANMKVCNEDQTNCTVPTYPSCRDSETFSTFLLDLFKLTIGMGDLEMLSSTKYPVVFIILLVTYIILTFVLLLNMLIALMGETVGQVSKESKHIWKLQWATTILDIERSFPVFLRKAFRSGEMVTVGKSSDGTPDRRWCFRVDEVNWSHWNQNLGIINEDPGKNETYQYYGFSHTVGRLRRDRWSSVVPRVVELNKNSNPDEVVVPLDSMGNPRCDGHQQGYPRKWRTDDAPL", "test": "Ligand-gated assay (Fluo4 calcium, FLIPR; inhibition of agonist-induced activation)", "type": "cell-based", "details": "HEK-293-MSR-II cells transduced with BacMam human TRPV4; agonist at EC80", "procedure,_shortened": "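Agonist (EC80) response read on FLIPR as Fluo-4 (2 uM) fluorescence after 10-min room-temperature compound exposure in HBSS/HEPES pH 7.4 with 0.01% Chaps. Cells: HEK-293-MSR-II expressing human TRPV4 via BacMam; output is IC50 of inhibition.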", "units": {"IC50": "nM"}, "values": [{"smiles": "C[C@]1(Cn2cnc3ccc(C#N)cc32)CCC[C@@]2(CN(c3ccc(C(F)(F)F)cn3)C(=O)O2)C1", "note": "[Example 11, 1-({(5S,7S)-7-Methyl-2-oxo-3-[5-(trifluoromethyl)-2-pyridinyl]-1-oxa-3-azaspiro[4.5]dec-7-yl}methyl)-1H-benzimidazole-6-carbonitrile]", "IC50": "10 to 50"}, {"smiles": "N#Cc1ccc2ncn(C[C@H]3CCC[C@]4(C3)CN(CC3CCN(c5ccccn5)C3)C(=O)O4)c2c1", "note": "(stereo partly drawn) [Example 86, 1-[((5S,7S)-2-oxo-3-{[1-(2-pyridinyl)-3-pyrrolidinyl]methyl}-1-oxa-3-azaspiro[4.5]dec-7-yl)methyl]-1H-benzimidazole-6-carbonitrile]", "IC50": "50 to 500"}, {"smiles": "C[C@]1(Cn2cnc3ccc(C#N)cc32)CCC[C@@]2(CN(c3ncc(Cl)cc3F)C(=O)O2)C1", "note": "[Example 114, 1-(((5S,7S)-3-(5-chloro-3-fluoropyridin-2-yl)-7-methyl-2-oxo-1-oxa-3-azaspiro[4.5]decan-7-yl)methyl)-1H-benzo[d]imidazole-6-carbonitrile]", "IC50": "0.1 to 10"}, {"smiles": "COC(C)c1noc(C(C)(C)CN2C[C@@]3(CCC[C@H](Cn4cnc5ccc(C#N)cc54)C3)OC2=O)n1", "note": "(stereo partly drawn) [Example 154, 1-{[(5S,7S)-3-(2-methyl-2-{3-[1-(methyloxy)ethyl]-1,2,4-oxadiazol-5-yl}propyl)-2-oxo-1-oxa-3-azaspiro[4.5]dec-7-yl]methyl}-1H-benzimidazole-6-carbonitrile]", "IC50": "0.1 to 10"}, {"smiles": "CC(C)(C#N)c1ccc(N2C[C@@]3(CCC[C@](C)(Cn4cnc5ccc(C#N)cc54)C3)OC2=O)cn1", "note": "[Example 133, 1-(((5S,7S)-3-(6-(2-cyanopropan-2-yl)pyridin-3-yl)-7-methyl-2-oxo-1-oxa-3-azaspiro[4.5]decan-7-yl)methyl]-1H-benzo[d]imidazole-6-carbonitrile]", "IC50": "0.1 to 10"}, {"smiles": "Cn1nc(C(C)(C)C)cc1N1C[C@@]2(CCC[C@](C)(Cn3cnc4ccc(C#N)cc43)C2)OC1=O", "note": "[Example 36, 1-({(5S,7S)-3-[3-(1,1-dimethylethyl)-1-methyl-1H-pyrazol-5-yl]-7-methyl-2-oxo-1-oxa-3-azaspiro[4.5]dec-7-yl}methyl)-1H-benzimidazole-6-carbonitrile]", "IC50": "50 to 500"}, {"smiles": "COCc1noc(C(C)(C)CN2C[C@@]3(CCC[C@H](Cn4cnc5ccc(C#N)cc54)C3)OC2=O)n1", "note": "[Example 81, 1-{[(5S,7S)-3-(2-methyl-2-{3-[(methyloxy)methyl]-1,2,4-oxadiazol-5-yl}propyl)-2-oxo-1-oxa-3-azaspiro[4.5]dec-7-yl]methyl}-1H-benzimidazole-6-carbonitrile]", "IC50": "0.1 to 10"}, {"smiles": "C[C@]1(Cn2cnc3ccc(C#N)cc32)CCC[C@@]2(CN(c3cnccc3C(F)(F)F)C(=O)O2)C1", "note": "[Example 144, 1-(((5S,7S)-7-methyl-2-oxo-3-(4-(trifluoromethyl)pyridin-3-yl)-1-oxa-3-azaspiro[4.5]decan-7-yl)methyl)-1H-benzo[d]imidazole-6-carbonitrile]", "IC50": "0.1 to 10"}, {"smiles": "C[C@]1(Cn2cnc3ccc(C#N)cc32)CCC[C@@]2(CN(c3ccc(Cl)nc3)C(=O)O2)C1", "note": "[Example 18]", "IC50": "10 to 50"}, {"smiles": "N#Cc1ccc2ncn(C[C@H]3CCC[C@]4(C3)CN(Cc3cn(-c5cccc(F)c5)nn3)C(=O)O4)c2c1", "note": "[Example 94, 1-[((5S,7S)-3-{[1-(3-fluorophenyl)-1H-1,2,3-triazol-4-yl]methyl}-2-oxo-1-oxa-3-azaspiro[4.5]dec-7-yl)methyl]-1H-benzimidazole-6-carbonitrile]", "IC50": "10 to 50"}, {"smiles": "N#Cc1ccc2ncn(C[C@H]3CCC[C@]4(C3)CN(Cc3cn(-c5ccnc(C(F)(F)F)c5)nn3)C(=O)O4)c2c1", "note": "[Example 100, 1-{[(5S,7S)-2-oxo-3-({1-[2-(trifluoromethyl)-4-pyridinyl]-1H-1,2,3-triazol-4-yl}methyl)-1-oxa-3-azaspiro[4.5]dec-7-yl]methyl}-1H-benzimidazole-6-carbonitrile]", "IC50": "0.1 to 10"}, {"smiles": "Cc1ccc(N2C[C@@]3(CCC[C@](C)(Cn4cnc5ccc(C#N)cc54)C3)OC2=O)nc1", "note": "[Example 29, 1-{[(5S,7S)-7-methyl-3-(5-methyl-2-pyridinyl)-2-oxo-1-oxa-3-azaspiro[4.5]dec-7-yl]methyl}-1H-benzimidazole-6-carbonitrile]", "IC50": "10 to 50"}, {"smiles": "CC(C)(CN1C[C@@]2(CCC[C@H](Cn3cnc4ccc(C#N)cc43)C2)OC1=O)c1nc(C(F)(F)F)no1", "note": "[Example 80, 1-[((5S,7S)-3-{2-methyl-2-[3-(trifluoromethyl)-1,2,4-oxadiazol-5-yl]propyl}-2-oxo-1-oxa-3-azaspiro[4.5]dec-7-yl)methyl]-1H-benzimidazole-6-carbonitrile]", "IC50": "0.1 to 10"}, {"smiles": "Cc1cc(-c2ccc(F)cn2)ncc1N1C[C@@]2(CCC[C@](C)(Cn3cnc4ccc(C#N)cc43)C2)OC1=O", "note": "[Example 165, 1-(((5S,7S)-3-(5′-fluoro-4-methyl-[2,2′-bipyridin]-5-yl)-7-methyl-2-oxo-1-oxa-3-azaspiro[4.5]decan-7-yl)methyl)-1H-benzo[d]imidazole-6-carbonitrile]", "IC50": "0.1 to 10"}, {"smiles": "CC(C)OCc1noc(C(C)(C)CN2C[C@@]3(CCC[C@H](Cn4cnc5ccc(C#N)cc54)C3)OC2=O)n1", "note": "[Example 83, 1-({(5S,7S)-3-[2-methyl-2-(3-{[(1-methylethyl)oxy]methyl}-1,2,4-oxadiazol-5-yl)propyl]-2-oxo-1-oxa-3-azaspiro[4.5]dec-7-yl}methyl)-1H-benzimidazole-6-carbonitrile]", "IC50": "0.1 to 10"}, {"smiles": "CC(C)c1ccc(N2C[C@@]3(CCC[C@H](Cn4cnc5ccc(C#N)cc54)C3)OC2=O)cn1", "note": "[Example 142, 1-({(5S,7S)-3-[6-(1-methylethyl)-3-pyridinyl]-2-oxo-1-oxa-3-azaspiro[4.5]dec-7-yl}methyl)-1H-benzimidazole-6-carbonitrile]", "IC50": "10 to 50"}, {"smiles": "N#Cc1ccc2ncn(C[C@H]3CCC[C@]4(C3)CN(Cc3cc(-c5ccccc5)no3)C(=O)O4)c2c1", "note": "[Example 68, 1-({(5S,7S)-2-oxo-3-[(3-phenyl-5-isoxazolyl)methyl]-1-oxa-3-azaspiro[4.5]dec-7-yl}methyl)-1H-benzimidazole-6-carbonitrile]", "IC50": "10 to 50"}, {"smiles": "Cc1cccc(-n2cc(CN3C[C@@]4(CCC[C@H](Cn5cnc6ccc(C#N)cc65)C4)OC3=O)nn2)c1", "note": "[Example 96, 1-[((5S,7S)-3-{[1-(3-methylphenyl)-1H-1,2,3-triazol-4-yl]methyl}-2-oxo-1-oxa-3-azaspiro[4.5]dec-7-yl)methyl]-1H-benzimidazole-6-carbonitrile]", "IC50": "10 to 50"}, {"smiles": "N#Cc1ccc2ncn(C[C@H]3CCC[C@]4(C3)CN(Cc3cn(-c5cncc(C(F)(F)F)c5)nn3)C(=O)O4)c2c1", "note": "[Example 9, 1-{[(5S,7S)-2-Oxo-3-({1-[5-(trifluoromethyl)-3-pyridinyl]-1H-1,2,3-triazol-4-yl}methyl)-1-oxa-3-azaspiro[4.5]dec-7-yl]methyl}-1H-benzimidazole-6-carbonitrile]", "IC50": "0.1 to 10"}, {"smiles": "C[C@]1(Cn2cnc3ccc(C#N)cc32)CCC[C@@]2(CN(c3cc(-c4ccccc4)no3)C(=O)O2)C1", "note": "[Example 35, 1-{[(5S,7S)-7-methyl-2-oxo-3-(3-phenyl-5-isoxazolyl)-1-oxa-3-azaspiro[4.5]dec-7-yl]methyl}-1H-benzimidazole-6-carbonitrile]", "IC50": "10 to 50"}, {"smiles": "COc1cc(OC)c(N2C[C@@]3(CCC[C@H](Cn4cnc5ccc(C#N)cc54)C3)OC2=O)cn1", "note": "[Example 141, 1-({(5S,7S)-3-[4,6-bis(methyloxy)-3-pyridinyl]-2-oxo-1-oxa-3-azaspiro[4.5]dec-7-yl}methyl)-1H-benzimidazole-6-carbonitrile]", "IC50": "10 to 50"}]}]}
